Here are results for 1 compound from patent US12594283B2 (The Medical College of Wisconsin, Inc., priority 2019, dated 2026).

The target of assay [1] is mitochondrial complex I (Homo sapiens, UniProt O75251+O75306+P03886). As to the kind of experiment: Mitochondrial complex I-driven oxygen consumption rate (Seahorse XF96) in permeabilized MiaPaCa-2 cells. The class given is cell-based. The following applies: 24 h treatment. The procedure:
FIG. 2. […] Relative complex I (1.5 mM malate, 10 mM pyruvate, 10 mM ADP)-driven OCR (left) and relative complex III (0.5 mM duroquinol, 10 mM ADP)-driven OCR (right) were monitored by XF-96 analyser. Either Rot (complex I inhibitor) or antimycin A (AA, complex III inhibitor) was acutely added and OCR assayed immediately. […] Dashed lines represent the fitting curves used for determination of the IC50 values.
Briefly, cells that were intact after treatments were immediately permeabilized using the Seahorse XF Plasma Membrane Permeabilizer (Agilent). The mitochondrial complex I-driven OCR was assayed in mannitol and sucrose buffer^31 containing 10 mM pyruvate and 1.5 mM malate (substrates for complex I) and 10 mM malonate (which inhibits complex II activities). The mitochondrial complex III-driven OCR was assayed in mannitol and sucrose buffer containing 0.5 mM duroquinol (substrate for complex III) and 1 μM Rot and 10 mM malonate (which inhibit both complex I and II activities). The mitochondrial complex-dependent oxygen consumption (calculated as Rot- or antimycin A-inhibitable OCR equals basal OCR less OCR after Rot or antimycin A injection) was plotted against concentrations to determine the IC50 values.

For assay [2], the system named is MDA-MB-231 human breast cancer cells. Put plainly: MDA-MB-231 cell proliferation, IncuCyte. It is filed as cell-based. The following applies: MDA-MB-231 cells. The text has this: (§1) FIG. 3. […] Cell proliferation was monitored in real-time with the continuous presence of indicated treatments until the end of each experiment. The cell confluence (as control groups reach 98% confluency) is plotted against concentration. Dashed lines represent the fitting curves used to determine the IC50 values as indicated.
(§2) The IncuCyte Live-Cell Imaging system (IncuCyte Essen Bioscience Inc., Ann Arbor, MI) was used to monitor cell proliferation.^11-13 As shown in previous publications,^11,12 this imaging system is probe-free and noninvasive, and enables continuous monitoring of cell confluence over several days. The increase in the percentage of cell confluence was used as a surrogate marker of cell proliferation. In a 96-well plate, cells were plated at 1,000 cells per well in triplicates and left to adhere overnight.

Assay [3] concerns LLC mouse lung cancer cells. Put plainly: LLC cell proliferation, IncuCyte. It is filed as cell-based.
From the text: as §1, §2

The subject of assay [4] is LKR13 mouse lung cancer cells. Put plainly: LKR13 cell proliferation, IncuCyte. The class given is cell-based.
From the text: as §1, §2

The test system of assay [5] is mitochondrial complex I. As to the kind of experiment: Complex I-driven OCR in A549, LLC and LKR13 cells. The class given is cell-based, human, mouse. Conditions: A549, LLC, LKR13 cells (FIG. 4). The procedure: (§3) FIG. 4. […] Dashed lines represent the fitting curves used for determination of the IC50 values.
(§4) Mitochondrial bioenergetic function was measured in real time using the Seahorse XF 96 Extracellular Flux Analyzer (Agilent, North Billerica, MA).^11-13,22 The OCR-based assessment of mitochondrial complex activities was carried out on acutely permeabilized cells in the presence of different mitochondrial substrates, i.e., pyruvate/malate, for complex I and duroquinol for complex III.^11,14,31,32 Rot, malonate, and antimycin A (Sigma-Aldrich, St. Louis, MO) were used as specific inhibitors of mitochondrial complexes I, II, and III, respectively. Briefly, cells that were intact after treatments were immediately permeabilized using the Seahorse XF Plasma Membrane Permeabilizer (Agilent). The mitochondrial complex I-driven OCR was assayed in mannitol and sucrose buffer^31 containing 10 mM pyruvate and 1.5 mM malate (substrates for complex I) and 10 mM malonate (which inhibits complex II activities). […] The mitochondrial complex-dependent oxygen consumption (calculated as Rot- or antimycin A-inhibitable OCR equals basal OCR less OCR after Rot or antimycin A injection) was plotted against concentrations to determine the IC50 values.

The test system of assay [6] is mitochondrial complex III. Put plainly: Complex III-driven OCR in A549, LLC and LKR13 cells. It is filed as cell-based, human, mouse. Conditions: A549, LLC, LKR13 cells (FIG. 4). The procedure:
as §3, §4

Chain of mitochondrial complex I (Homo sapiens, UniProt O75251+O75306+P03886) (O75306 34-463): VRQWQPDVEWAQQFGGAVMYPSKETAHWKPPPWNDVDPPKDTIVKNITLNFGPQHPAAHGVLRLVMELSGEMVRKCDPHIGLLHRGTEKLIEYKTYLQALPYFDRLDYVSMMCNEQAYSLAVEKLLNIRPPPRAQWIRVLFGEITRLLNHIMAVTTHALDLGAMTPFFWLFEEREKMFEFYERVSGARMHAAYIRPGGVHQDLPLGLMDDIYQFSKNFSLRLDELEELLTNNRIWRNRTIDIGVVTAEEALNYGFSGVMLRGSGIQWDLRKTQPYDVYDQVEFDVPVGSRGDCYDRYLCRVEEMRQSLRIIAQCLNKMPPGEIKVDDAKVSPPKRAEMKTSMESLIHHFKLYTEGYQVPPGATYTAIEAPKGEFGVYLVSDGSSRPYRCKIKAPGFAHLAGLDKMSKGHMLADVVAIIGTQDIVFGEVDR
Chain of mitochondrial complex I (Homo sapiens, UniProt O75251+O75306+P03886) (O75251 39-213): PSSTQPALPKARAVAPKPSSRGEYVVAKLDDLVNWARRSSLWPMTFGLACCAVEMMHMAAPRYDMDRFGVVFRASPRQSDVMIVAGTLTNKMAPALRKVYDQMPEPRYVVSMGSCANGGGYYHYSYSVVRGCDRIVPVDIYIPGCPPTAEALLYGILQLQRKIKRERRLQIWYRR
Chain of mitochondrial complex I (Homo sapiens, UniProt O75251+O75306+P03886) (P03886 whole entry): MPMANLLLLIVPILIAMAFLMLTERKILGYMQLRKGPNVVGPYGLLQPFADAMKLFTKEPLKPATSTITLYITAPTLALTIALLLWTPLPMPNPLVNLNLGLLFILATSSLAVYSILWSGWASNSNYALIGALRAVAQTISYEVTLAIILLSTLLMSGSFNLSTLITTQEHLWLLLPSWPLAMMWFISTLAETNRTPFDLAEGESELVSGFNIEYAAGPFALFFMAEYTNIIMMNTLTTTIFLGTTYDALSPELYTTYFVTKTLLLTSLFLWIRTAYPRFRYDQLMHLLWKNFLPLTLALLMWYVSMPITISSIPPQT

For `O=C1C(OCCCCCCCCCC[P+](c2ccccc2)(c2ccccc2)c2ccccc2)=C([C@H]2CC[C@H](c3ccc(Cl)cc3)CC2)C(=O)c2ccccc21` [Mito10-ATO], the “inhibition of complex I-induced oxygen consumption” value against mitochondrial complex I [1] is “potently inhibit”; in the assay on mitochondrial complex I [5], “inhibited both mitochondrial complex I- and III-induced oxygen consumption”. In addition, the “effect on cell proliferation” value in assay [2], in assay [3] and in assay [4] was “effective at halting cell proliferation” throughout. Further, the “inhibition of complex III-induced oxygen consumption” value in assay [6] was “inhibited both mitochondrial complex I- and III-induced oxygen consumption”.
